Laboratory results reported in patent US10370391B2, “Hydrogen peroxide-activable, anti-oxidant compounds and methods using same” (Beth Israel Deaconess Medical Center, Inc., priority 2014, dated 2019).

What was measured:
[1] = test system: human embryonic kidney (HEK 293) cells; assay: MTT cytotoxicity assay, HEK 293; type: cell-based; settings: concentrations as high as 5 mM, 24 hours of incubation
Protocol: FIG. 8, comprising FIGS. 8A-8B, is a set of bar graphs illustrating biocompatibility profiles of BRAP assessed by MTT assay in human embryonic kidney (HEK 293) cells (FIG. 8A) and mouse embryonic fibroblast (NIH 3T3) cells (FIG. 8B).
3-(4,5-Dimethylthiazil-2yl)-2,5-diphenyltetrazolium bromide (MTT) assay was performed to evaluate the cytotoxicity of BRAP. NIH 3T3 cells were cultured at a density of 1×10^5 cells/well in a 24 well plate, and RAW 264.7 cells and HEK cells were also cultured at a density of 2×10^5 cells/well in a 24 well plate. Cells were incubated for 24 hours to reach ˜80% confluency. Cells were treated with various amount of BRAP and incubated for 24 hours. Each well was given 100 μL of MTT solution and was incubated for 4 h. 200 μL of dimethyl sulfoxide (DMSO) were added to each well to dissolve the resulting formazan crystals. After 10 min incubation, the absorbance at 570 nm was measured using a microplate reader (Biotek Instruments, Winooski, Vt.). The cell viability was determined by comparing the absorbance of BRAP treated cells that of control cells.

TNF-α = TNF-α level in LPS-stimulated macrophage cells; type: cell-based, mouse
Protocol: FIG. 4, comprising FIGS. 4A-4F, is a set of graphs, bar graphs and images illustrating anti-oxidant and anti-inflammatory effects of BRAP in vitro. […] The generation of ROS was monitored by flow cytometry as an indicator of DCF fluorescence. Fluorescence was analyzed in 10,000 cells with excitation at 480 nm and emission at 530 nm. FIG. 4C: Protective effect of BRAP on H2O2— stimulated adult rat cardiomyocytes. V=vehicle, *<0.05 vs. V+H2O2 (n=4). […] (n=4/group).
The anti-inflammatory effects of BRAP on LPS-stimulated cells were investigated by measuring the level of inflammatory cytokines such as TNF-α (tumor necrosis factor-alpha) and iNOS (inducible nitric oxide synthases) (FIGS. 4E-4F). […] These observations indicate that BRAP, as well as BRAP-encapsulated PLGA microparticles, is able to scavenge overproduced H2O2 and serve as a H2O2-activable anti-oxidant. Further, the enhanced anti-oxidant activity of BRAP is derived from the combined effects of H2O2-scavenging boronic esters and HBA generation after H2O2-mediated boronate oxidation.

cardiac I/R injury = assay: Mouse model of cardiac I/R injury; type: in vivo
Protocol: The beneficial effects of BRAP were further investigated using a mouse model of cardiac I/R injury in vivo. After 45 minutes of ischemia, BRAP (1.5 mg/kg) or vehicle was administered i.p. at the time of reperfusion, and then daily (1.5 mg/kg/day) for 2 weeks. For cardiac functional analysis, pressure-volume (PV) loop measurement and echocardiography were performed at 2 weeks after I/R surgery.
Studies were then performed to determine whether the benefits of BRAP after I/R were associated with attenuation of oxidative stress, inflammation, and apoptosis. These mechanistic analyses were performed in heart tissues 24 hours after cardiac I/R injury. […] BRAP administration decreased TNF-α and MCP-1 expressions compared with vehicle-treated mice.
Cardiac I/R surgery was performed in 12 week-old male mice as described in Choudhury, et al., 2011, Basic Res Cardiol 106:397. Briefly, mice were anaesthetized and placed on a rodent ventilator (model 687, Harvard Respirator). After thoracotomy, the left anterior descending artery (LAD) artery was identified and ligated with a 7-0 silk suture tied around a specialized 30 G-catheter. The animal remained under anesthesia and ventilation for 45 min of ischemia, after which reperfusion was achieved by cutting the suture and re-establishing arterial perfusion. Sham operated mice underwent the same procedure without LAD occlusion.
Cardiac function was evaluated using the pressure-volume loop measurement and echocardiography 2 weeks after I/R as described in Lee, et al., 2013, Sci Rep 3:2233. Pressure-volume parameters were measured after isoflurane (2%) inhalant anesthesia using a 1.4 Fr. micro-tip pressure-volume catheter (Scisense Inc, Ontario, Canada) inserted into the right common carotid artery. The catheter was gently advanced into the left ventricle to obtain LV hemodynamic parameters. Data was recorded using a Powerlab system (ADInstruments, Colorado Springs, Colo.). Beat by beat pressure-volume parameters including heart rate (HR), stroke volume (SV), stroke work (SW) and cardiac output (CO) were measured and analyzed using CardioSoft Pro software (CardioSoft, Houston, Tex.). Transthoracic echocardiography was performed using a Vevo2100 ultra-high frequency small animal imaging system with MS400 transducer (18-38 MHz) (Visualsonics, Toronto, Canada).
For liver apoptosis assay, terminal deoxynucleotidyl transferase dUTP nick end labeling (TUNEL) staining was performed using a DeadEnd™ Fluorometric TUNEL kit (Promega, Madison, Wis.). Tissue sections were stained for nuclei (4′,6-diamidino-2-phenylindole (DAPI) staining) and apoptotic nuclei (TUNEL staining) and analyzed using a confocal laser scanning microscope. For heart tissues, TUNEL staining was performed using in situ cell death detection Kit, fluorescein (Roche Applied Science, Indianapolis, Ind.). To distinguish cardiomyocyte from non-cardiomyocyte nuclei, triple stain for nuclei (DAPI staining), apoptotic nuclei (TUNEL staining), and cardiomyocytes (α-Actinin staining) was used, and the stained sections were analyzed using confocal microscopy. A minimum of ˜10 high power fields with ˜2000 nuclei/field were counted for each sample.
The activity of caspase-3 was determined with colorimetric assay kit (R&D Systems, Minneapolis, Minn.) as described in Choudhury, et al., 2011, Basic Res Cardiol 106:397; Bae, et al., 2010, Am J Physiol Heart Circ Physiol 299:H1374. Briefly, protein samples were added to substrates of Acetyl-Asp-Glu-Val-Asp-p-nitroanilide. The enzyme-catalyzed release of p-nitroanilide was measured at 405 nm. For PARP activity assay, activity was measured at 450 nm by incorporation of biotinylated poly (ADP-ribose) onto histone-coated proteins in plate using colorimetric assay kit (R&D Systems, Minneapolis, Minn., USA).
Heart tissues were collected for molecular analyses were performed in Bae, et al., 2010, Am J Physiol Heart Circ Physiol 299:H1374. […]

[2] = 1.5 mg/kg i.p. at reperfusion then daily for 2 weeks
[3] = 24 hours after I/R, compared with vehicle-treated mice

SMILES: CC1(CO)COB(c2ccc(CO)cc2)OC1 [BRAP, (4-(5-(hydroxymethyl)-5-methyl-1,3,2-dioxaborinan-2-yl)phenyl)methanol]
- cytotoxicity (MTT) [1]: no significant cytotoxicity
- TNF-α level (TNF-α): significantly suppressing
- I/R-induced cardiac dysfunction by PV loop analysis (CO, SW, EF) (cardiac I/R injury; [2]): significantly attenuated
- I/R-induced cardiac dysfunction by echocardiography (FS) (cardiac I/R injury; [2]): significantly attenuated
- TUNEL-positive cardiomyocytes (apoptosis) (cardiac I/R injury; 24 hours after I/R): effectively inhibited
- caspase-3 activation in heart (cardiac I/R injury; 24 hours after I/R): effectively reduced
- MCP-1 mRNA expression in heart (cardiac I/R injury; [3]): decreased
- TNF-α mRNA expression in heart (cardiac I/R injury; [3]): decreased
- DHE staining (ROS generation) in heart (cardiac I/R injury; heart tissue 24 hours after I/R): significantly decreased
